One test deals with Pseudomonas aeruginosa. Put plainly: Antibacterial growth inhibition, P. aeruginosa. In kind it is cell-based. To be noted: P. aeruginosa Strain 19606.
Another test relates to Cryptococcus neoformans. Put plainly: Antifungal growth inhibition, C. neoformans. Details: activity class in primary screening: dose or concentration left out as unconfirmed. To be noted: for inhibition at 32 µg/mL: Cryptococcus neoformans, ATCC208821, read-out: % Growth inhibition.
Test [1] deals with 60 human tumor cell lines. Put plainly: cells.
Test [2] relates to methicillin-resistant Staphylococcus aureus (MRSA). Put plainly: Antibacterial growth inhibition, S. aureus. Conditions: for inhibition at 32 µg/mL: Staphylococcus aureus, ATCC 43300 / MRSA, S. aureus Strain ATCC 43300. The format is cell-based.
For another test, the system named is SR. Put plainly: NCI-60 SRB screen: leukemia SR. In kind it is cell-based. Conditions: Homo sapiens, 48 h, single dose 10 µM, read-out: Percentage Cell Growth.
For the next test, the system named is Candida albicans. Put plainly: Antifungal growth inhibition, C. albicans. Conditions: ATCC90028, read-out: % Growth inhibition.
The test system of the next test is Escherichia coli. Put plainly: Antibacterial growth inhibition, E. coli. To be noted: ATCC25922, E. coli Strain ATCC 25922. The format is cell-based.
For the next test, the system named is Klebsiella pneumonia. Put plainly: Antibacterial growth inhibition, K. pneumonia. Conditions: Klebsiella pneumoniae, ATCC700603, K. pneumonia Strain ATCC 700603. The format is cell-based.
For the next test, the system named is Acinetobacter baumannii. Put plainly: Antibacterial growth inhibition, A. baumannii. The format is cell-based. To be noted: ATCC27853, A. baumannii Strain ATCC 27853.
Test [3] has as its system pathogenic microorganisms. Put plainly: Primary antimicrobial screening, five bacterial strains and two fungi. More on the design: dose or concentration left out as unconfirmed.
Description: The antifungal activity was determined against Candida albicans and Cryptococcus neoformans. […] Samples with inhibition value above 80% were classed as actives. Samples with inhibition values between 50 and 80% were classed as partial actives.
(§2) Samples were prepared in DMSO and water to a final testing concentration of 32 µg/mL, in 384-well, non-binding surface plate (NBS) for each bacterial/fungal strain, and in duplicate (n = 2) and keeping the final DMSO concentration to a maximum of 1% DMSO. All the sample-preparation was done using liquid handling robots.
All bacteria were cultured in cation-adjusted Mueller Hinton broth (CAMHB) at 37 °C overnight. A sample of each culture was then diluted 40-fold in fresh broth and incubated at 37 °C for 1.5–3 h. The resultant mid-log phase cultures were diluted (CFU/ ml measured by OD600), then added to each well of the compound containing plates, giving a cell density of 5 × 10^5 CFU/mL and a total volume of 50 µl. All the plates were covered and incubated at 37 °C for 18 h without shaking.
Inhibition of bacterial growth was determined measuring absorbance at 600 nm (OD600), using a Tecan M1000 Pro monochromator plate reader. The percentage of growth inhibition was calculated for each well, using negative control (media only) and positive control (bacteria without inhibitors) on the same plate as references. The significance of the inhibition values was determined by modified Z-scores, calculated using the median and MAD of the samples (no controls) on the same plate. Samples with inhibition value above 80% and Z-score above 2.5 for either replicate were classed as actives. […]
Fungi strains were cultured for 3 days on Yeast Extract-Peptone Dextrose (YPD) agar at 30 °C. A yeast suspension of 1 × 10^6 to 5 × 10^6 CFU/mL (as determined by OD530) was prepared from five colonies. […]
The absorbance was measured using a Biotek Synergy HTX plate reader. The percentage of growth inhibition was calculated for each well, using negative control (media only) and positive control (fungi without inhibitors) on the same plate. […]
In the next test the target is Yeast α-Glucosidase. Put plainly: Yeast α-glucosidase activity assay. The format is biochemical, S. cerevisiae. To be noted: pH 6.8, 37 °C, p-nitrophenyl-α-D-glucopyranoside 1 mM; read-out: Yeast α-Glucosidase, IC50 ± SE. The protocol: (§1) Taken together, these considerations prompted us to evaluate a series of lupanes with amide function or polyamine chain 11, 12, 16, 18, and 22–26 for α-glucosidase inhibition. Initially, they were screened against α-glucosidase of S. cerevisiae as an accessible and high-throughput model. Confirmatory experiments were performed on isolated rough endoplasmic reticulum vesicles from rat liver, which contain neutral α-glucosidases I and II in a membrane-bound form.
In a 96-well flat transparent plate, the 0.12 U/mL enzyme solution (EC 3.2.1.20, expressed in S. cerevisiae, Sigma #G0660, St. Louis, MO, USA) was incubated with test compounds in 67 mM PBS (pH 6.8) at 37 °C for 5 min. Then, p-nitrophenyl-α-D-glucopyranoside (Sigma #N1377, St. Louis, MO, USA) was added to 1 mM final concentration and an increase in absorbance was recorded for 15 min at 405 nm wavelength with Infinite M200 PRO microplate reader (Tecan, Austria). Test compounds were dissolved in DMSO and diluted to the desired concentration in 67 mM PBS (pH 6.8) supplemented with 0.01% Tween 80 to avoid aggregation. Final DMSO concentration was <0.25% in sample wells, and it was also introduced in control and blank wells. […] Due to the absence of normal distribution of data, a Mann–Whitney U-test was used to determine statistical significance versus enzyme control using GraphPad Prism 8.0.1.

The subject of test [4] is Rat Liver ER Neutral α-Glucosidase. Put plainly: Endoplasmic reticulum α-glucosidase activity assay. In kind it is biochemical.
Text: as §1, with “Betulinic acid inhibits yeast α-glucosidase activity and interferes with N-linked glycan modifications to cell-surface intercellular adhesion molecule-1 (ICAM-1) in human lung carcinoma A549 cells in a similar manner to castanospermine, an inhibitor of endoplasmic reticulum α-glucosidases I and II [66]. […] Taken” for “Taken”
Endoplasmic reticulum was isolated from hepatocytes of decapitated male Sprague-Dawley rats, which were starved overnight and sacrificed the next morning. All experiments were approved by Volgograd regional ethic committee. The whole procedure was performed at 4 °C. In brief, a fresh tissue sample from an animal was washed twice with 10 mL of PBS to remove residual blood. The tissue was placed on a paper towel in order to absorb excess liquid and blood clots, if present. It was cut further into small pieces (1.5–2 cm) and washed once more. […] Homogenate was centrifuged at 1000× g for 10 min at 4 °C. After removal of the floating lipid layer by aspiration, supernatant was separated and centrifuged at 12,000× g for 15 min. at 4 °C. The supernatant fraction, which is the post mitochondrial fraction (PMF), was used for isolation of rough endoplasmic reticulum (RER) enriched microsomes by precipitation with 8 mM CaCl2 added dropwise. The final concentration of CaCl2 was 7 mM. Resulting sample was centrifuged at 8000 g for 10 min. at 4 °C. The supernatant was discarded, and the pellet was suspended in isotonic extraction buffer (0.3 mL of buffer for each g of original tissue). The suspension was homogenized completely to afford RER enriched microsomes. In a 96-well flat transparent plate 25 µL of the isolated RER microsomes were incubated with 50 µL of test compounds in 67 mM PBS (pH 6.8) at 37 °C for 10 min. Then, p-nitrophenyl-α-D-glucopyranoside (Sigma #N1377, St. Louis, MO, USA) was added to 1 mM final concentration and increase in absorbance was recorded for 42 min at 405 nm wavelength with Infinite M200 PRO microplate reader (Tecan, Austria). Concentration of RER microsomes was adjusted to achieve an increase in optical density of ~0.2 in control samples after 30 min. of incubation. Test compounds were prepared as described above for the yeast α-glucosidase assay.

The structures appear in SMILES notation. Like-named read-outs stand apart in the source and are kept apart here.

One may read the inhibition as the change of the read-out against control, counted positive when it falls. The term IC50 denotes the concentration at which inhibition is half-maximal.

Description for Candida albicans: (§3) The antifungal activity was determined against Candida albicans and Cryptococcus neoformans.
as §2
(§4) Fungi strains were cultured for 3 days on Yeast Extract-Peptone Dextrose (YPD) agar at 30 °C. A yeast suspension of 1 × 10^6 to 5 × 10^6 CFU/mL (as determined by OD530) was prepared from five colonies. The suspension was subsequently diluted and added to each well of the compound-containing plates giving a final cell density of fungi suspension of 2.5 × 10^3 CFU/mL and a total volume of 50 µl. All plates were covered and incubated at 35 °C for 24 h without shaking.
(§5) The absorbance was measured using a Biotek Synergy HTX plate reader. The percentage of growth inhibition was calculated for each well, using negative control (media only) and positive control (fungi without inhibitors) on the same plate. The significance of the inhibition values was determined by modified Z-scores, calculated using the median and MAD of the samples (no controls) on the same plate. Samples with an inhibition value above 80% and Z-score above 2.5 for either replicate (n = 2 on different plates) were classed as actives. Samples with inhibition values between 50% and 80% and a Z-score above 2.5 for either replicate were classed as partial actives.
Description for Cryptococcus neoformans: as §3, §2, §4, §5

On to `C=C(C)[C@@H]1CC[C@]2(C(=O)N3CCCNCC3)CC[C@]3(C)[C@H](CC[C@@H]4[C@@]5(C)CCC(=O)C(C)(C)[C@@H]5CC[C@]43C)[C@@H]12` [Compound 2, 28-(1,4-Diazepan-1-yl)-28-oxolup-20(29)-en-3-one], for which the inhibition at 32 µg/mL was 8.34% in the test with Pseudomonas aeruginosa; -5.9% in the test with Cryptococcus neoformans; 40.3% in test [2]; 4.14% in the test on Candida albicans; 1.96% in the test on Escherichia coli; 0.98% in the test on Klebsiella pneumonia. For the same compound, the inhibition at 32 µg/mL in the test on Acinetobacter baumannii stood at 33.1%. For the same compound, the activity at 10 µM in [1] (read-out: Mean Growth, %) was 89.5%; in [1] (read-out: Range of Growth, %), 8.04 to 127%; in the test with SR, 8.04%. In test [3], the “inhibition of growth of pathogenic microorganisms” value is reported as “did not inhibit the growth”.

Turning to `C=C(C)[C@@H]1CC[C@]2(C(=O)NCCNCCN)CC[C@]3(C)[C@H](CC[C@@H]4[C@@]5(C)CCC(=O)C(C)(C)[C@@H]5CC[C@]43C)[C@@H]12` [Compound 12], the inhibition at 32 µg/mL in the test on Pseudomonas aeruginosa is 7.72%; with Cryptococcus neoformans, 62.6%; in [2] it was 71.8%; in the test with Candida albicans, 11.7%; in the test with Escherichia coli, -9.57%; in the test on Klebsiella pneumonia, 9.2%. Also, the inhibition at 32 µg/mL with Acinetobacter baumannii turned out to be 19.5%. Also, the “activity class in primary screening” value in the test on Cryptococcus neoformans (C. neoformans, one concentration) was “partial activity”; in [2] (methicillin-resistant S. aureus, one concentration of 32 µg/mL) it was “partial activity”. Also, the activity at 10 µM in [1] (read-out: Mean Growth, %) was 98.9%; in test [1] (read-out: Range of Growth, %), 59.1 to 141%. Further, the IC50 at Yeast α-Glucosidase was > 100 µM. The entries for the “Rat Liver ER Neutral α-Glucosidase Inhibition, m ± SD” value in [4] (10 μM) and in test [4] (100 μM) were 10.21 ± 3.49% and 23.59 ± 1.34 %, respectively.

Turning to `C=C(C)[C@@H]1CC[C@]2(C(=O)NCCCNCCCN)CC[C@]3(C)[C@H](CC[C@@H]4[C@@]5(C)CCC(=O)C(C)(C)[C@@H]5CC[C@]43C)[C@@H]12` [Compound 16], the activity at 10 µM in test [1] (read-out: Mean Growth, %) was 101%; in test [1] (read-out: Range of Growth, %), 59.3 to 141%. The IC50 on Yeast α-Glucosidase is > 100 µM. For the same compound, the results for the “Rat Liver ER Neutral α-Glucosidase Inhibition, m ± SD” value in test [4] (10 μM) and in test [4] (100 μM) were 9.05 ± 6.68% and 14.94 ± 6.31%, respectively.

For the compound `C=C(C)[C@@H]1CC[C@]2(COCCCN)CC[C@]3(C)[C@H](CC[C@@H]4[C@@]5(C)CC[C@H](OCCCN)C(C)(C)[C@@H]5CC[C@]43C)[C@@H]12` [Compound 18], the concentration for half-maximal inhibition (IC50) on Yeast α-Glucosidase was 5.7 ± 1.09 µM. The figures for the “Rat Liver ER Neutral α-Glucosidase Inhibition, m ± SD” value in test [4] (10 μM) and in test [4] (100 μM) were 56.64 ± 4.24 % and 36.51 ± 14.90 %, respectively.

Regarding `C=C(C)[C@@H]1CC[C@]2(C=NCCCNCCCCN)CC[C@]3(C)[C@H](CC[C@@H]4[C@@]5(C)CCC(=O)C(C)(C)[C@@H]5CC[C@]43C)[C@@H]12` [Compound 22], the activity at 10 µM in [1] (read-out: Mean Growth, %) was 102%; in test [1] (read-out: Range of Growth, %), 80.5 to 123%. Further, the IC50 at Yeast α-Glucosidase is > 100 µM. The “Rat Liver ER Neutral α-Glucosidase Inhibition, m ± SD” value in test [4] (10 μM) worked out at 31.42 ± 7.96 %; in test [4] (100 μM), 58.52 ± 8.21 %.

In the case of `C=C(C)[C@@H]1CC[C@]2(CO)CC[C@]3(C)[C@H](CC[C@@H]4[C@@]5(C)CCCNC(C)(C)[C@@H]5CC[C@]43C)[C@@H]12` [Compound 23], the IC50 at Yeast α-Glucosidase was > 100 µM. In addition, the “Rat Liver ER Neutral α-Glucosidase Inhibition, m ± SD” value was −1.34 ± 2.22% in test [4] (10 μM) and 5.85 ± 8.03% in [4] (100 μM).

With `C=C(C)[C@@H]1CC[C@]2(C=NCCCNCCCCN)CC[C@]3(C)[C@H](CC[C@@H]4[C@@]5(C)CCCNC(C)(C)[C@@H]5CC[C@]43C)[C@@H]12` [Compound 24], the activity at 10 µM in test [1] (read-out: Mean Growth, %) was 93.6%; in test [1] (read-out: Range of Growth, %), 21.7 to 132%; with SR it was 21.7%. Moreover, at Yeast α-Glucosidase, the IC50 is > 100 µM. For the same compound, the “Rat Liver ER Neutral α-Glucosidase Inhibition, m ± SD” value in test [4] (10 μM) worked out at 26.96 ± 2.33 %; in [4] (100 μM), 54.62 ± 15.38 %.

Turning to `C=C(C)[C@@H]1CC[C@]2(C(=O)OC)CC[C@]3(C)[C@H](CC[C@@H]4[C@@]5(C)C/C(=C/NC(N)=O)C(=O)C(C)(C)[C@@H]5CC[C@]43C)[C@@H]12` [Compound 25], the inhibition at 32 µg/mL with Pseudomonas aeruginosa is -8.92%; in the test with Cryptococcus neoformans, -7.93%; in test [2] it was 19.8%; in the test with Candida albicans, 14%; in the test on Escherichia coli, -5.34%; with Klebsiella pneumonia it was 2.44%. Moreover, the inhibition at 32 µg/mL in the test with Acinetobacter baumannii came to 40.9%. The activity at 10 µM in [1] (read-out: Mean Growth, %) is 91.7%; in [1] (read-out: Range of Growth, %), 21.2 to 112%; with SR it was 21.2%. The “inhibition of growth of pathogenic microorganisms” value in [3] is “did not inhibit the growth”. In addition, the IC50 on Yeast α-Glucosidase was 53.3 ± 5.7 µM. Also, the “Rat Liver ER Neutral α-Glucosidase Inhibition, m ± SD” value was found to be 8.76 ± 9.63% in test [4] (10 μM) and 9.62 ± 6.94% in test [4] (100 μM).

With `C=C(C)[C@@H]1CC[C@]2(C(=O)OC)CC[C@]3(C)[C@H](CC[C@@H]4[C@@]5(C)C/C(=C/NC(N)=S)C(=O)C(C)(C)[C@@H]5CC[C@]43C)[C@@H]12` [Compound 26], the inhibition at 32 µg/mL with Pseudomonas aeruginosa is -4.64%; with Cryptococcus neoformans, -13%; in [2], 12.7%; with Candida albicans, 5.83%; in the test with Escherichia coli it was -7.03%; in the test with Klebsiella pneumonia, -3.89%. Moreover, the inhibition at 32 µg/mL in the test on Acinetobacter baumannii came to 28.2%. In addition, the activity at 10 µM in test [1] (read-out: Mean Growth, %) was 90.5%; in test [1] (read-out: Range of Growth, %), 60.9 to 126%. Besides, in [3], the “inhibition of growth of pathogenic microorganisms” value is recorded as “did not inhibit the growth”. Further, at Yeast α-Glucosidase, the IC50 was > 100 µM. For the same compound, the “Rat Liver ER Neutral α-Glucosidase Inhibition, m ± SD” value in test [4] (10 μM) is 11.63 ± 9.09%; in [4] (100 μM), 26.60 ± 13.03%.

The values above are taken from PMC7587962, “Evaluation of Cytotoxicity and α-Glucosidase Inhibitory Activity of Amide and Polyamino-Derivatives of Lupane Triterpenoids” (Molecules, 2020).
